Experimental data from the NIST ThermoML archive (doi:10.1016/j.fluid.2014.10.004).
Numbers after ± are expanded uncertainties.

What was measured:
[1] = xn = mol fraction of the nth substance listed; settings: 101.3 kPa, Liquid, Sing-around technique in a fixed-path interferometer
[2] = refractive index (Na D-line) (dimensionless); xn = mol fraction of the nth substance listed; settings: 101.3 kPa, Liquid, Standard Abbe refractometry

CC(Cl)(Cl)Cl [1,1,1-trichloroethane] + C[N+](=O)[O-]
Settings | refractive index, 298.15 K | refractive index, 308.15 K | refractive index, 318.15 K | speed of sound, 298.15 K [m/s] | speed of sound, 308.15 K [m/s] | speed of sound, 318.15 K [m/s]
[1], x1 = 0.0921 | – | – | – | 1258.6 ± 1.7 | 1219.9 ± 1.7 | 1181.4 ± 1.7
[1], x1 = 0.1727 | – | – | – | 1211.5 ± 1.7 | 1173.7 ± 1.7 | 1136 ± 1.7
[1], x1 = 0.2614 | – | – | – | 1166.3 ± 1.7 | 1129.1 ± 1.7 | 1092.1 ± 1.7
[1], x1 = 0.3951 | – | – | – | 1109.8 ± 1.6 | 1073.5 ± 1.6 | 1037.3 ± 1.6
[1], x1 = 0.4862 | – | – | – | 1079.3 ± 1.6 | 1043.4 ± 1.6 | 1007.6 ± 1.6
[1], x1 = 0.5904 | – | – | – | 1048.7 ± 1.6 | 1013.2 ± 1.6 | 977.89 ± 1.6
[1], x1 = 0.7066 | – | – | – | 1019.3 ± 1.6 | 984.72 ± 1.6 | 949.76 ± 1.6
[1], x1 = 0.8358 | – | – | – | 992.76 ± 1.5 | 957.84 ± 1.5 | 923.21 ± 1.5
[1], x1 = 0.9012 | – | – | – | 980.43 ± 1.5 | 945.74 ± 1.5 | 911.39 ± 1.5
[1], x1 = 1 | – | – | – | 962.94 ± 1.5 | 928.68 ± 1.5 | 894.71 ± 1.5
[2], x1 = 0.0921 | 1.38777 ± 0.0004 | 1.38231 ± 0.0004 | 1.37702 ± 0.0004 | – | – | –
[2], x1 = 0.1727 | 1.39427 ± 0.0004 | 1.38809 ± 0.0004 | 1.38239 ± 0.0004 | – | – | –
[2], x1 = 0.2614 | 1.4006 ± 0.0004 | 1.39442 ± 0.0004 | 1.3887 ± 0.0004 | – | – | –
[2], x1 = 0.3951 | 1.40894 ± 0.00039 | 1.40268 ± 0.00039 | 1.39695 ± 0.00039 | – | – | –
[2], x1 = 0.4862 | 1.41396 ± 0.00039 | 1.40768 ± 0.00039 | 1.40208 ± 0.00039 | – | – | –
[2], x1 = 0.5904 | 1.41903 ± 0.00038 | 1.41302 ± 0.00038 | 1.40727 ± 0.00038 | – | – | –
[2], x1 = 0.7066 | 1.42412 ± 0.00038 | 1.41834 ± 0.00038 | 1.41249 ± 0.00038 | – | – | –
[2], x1 = 0.8358 | 1.42923 ± 0.00037 | 1.42338 ± 0.00037 | 1.41753 ± 0.00037 | – | – | –
[2], x1 = 0.9012 | 1.43156 ± 0.00037 | 1.42575 ± 0.00037 | 1.41987 ± 0.00037 | – | – | –
[2], x1 = 1 | 1.43492 ± 0.00037 | 1.42908 ± 0.00037 | 1.42311 ± 0.00037 | – | – | –

ClC(Cl)C(Cl)Cl [1,1,2,2-tetrachloroethane] + C[N+](=O)[O-]
Settings | refractive index, 298.15 K | refractive index, 308.15 K | refractive index, 318.15 K | speed of sound, 298.15 K [m/s] | speed of sound, 308.15 K [m/s] | speed of sound, 318.15 K [m/s]
[1], x1 = 0.0711 | – | – | – | 1293.1 ± 1.8 | 1254.8 ± 1.8 | 1216.6 ± 1.8
[1], x1 = 0.1888 | – | – | – | 1257.7 ± 1.9 | 1220.8 ± 1.8 | 1184.5 ± 1.8
[1], x1 = 0.2563 | – | – | – | 1241.8 ± 1.9 | 1205.8 ± 1.9 | 1170 ± 1.9
[1], x1 = 0.3464 | – | – | – | 1224.1 ± 1.9 | 1189.1 ± 1.9 | 1154.2 ± 1.9
[1], x1 = 0.4341 | – | – | – | 1209.8 ± 2 | 1175.4 ± 2 | 1141.1 ± 2
[1], x1 = 0.5431 | – | – | – | 1194.8 ± 2 | 1161.1 ± 2 | 1127.6 ± 2
[1], x1 = 0.6654 | – | – | – | 1180.7 ± 2.1 | 1147.6 ± 2.1 | 1114.7 ± 2.1
[1], x1 = 0.8211 | – | – | – | 1165.3 ± 2.2 | 1133 ± 2.2 | 1100.8 ± 2.2
[1], x1 = 0.9285 | – | – | – | 1156.2 ± 2.3 | 1124.2 ± 2.3 | 1092.3 ± 2.3
[1], x1 = 1 | – | – | – | 1150.6 ± 2.3 | 1118.7 ± 2.3 | 1087 ± 2.3
[2], x1 = 0.0711 | 1.39391 ± 0.00042 | 1.3893 ± 0.0004 | 1.38479 ± 0.00042 | – | – | –
[2], x1 = 0.1888 | 1.41442 ± 0.00043 | 1.4099 ± 0.0004 | 1.40582 ± 0.00043 | – | – | –
[2], x1 = 0.2563 | 1.42485 ± 0.00043 | 1.42025 ± 0.00043 | 1.4162 ± 0.0004 | – | – | –
[2], x1 = 0.3464 | 1.43683 ± 0.00044 | 1.43222 ± 0.00044 | 1.42805 ± 0.00044 | – | – | –
[2], x1 = 0.4341 | 1.44721 ± 0.00045 | 1.4425 ± 0.0005 | 1.43807 ± 0.00045 | – | – | –
[2], x1 = 0.5431 | 1.45848 ± 0.00046 | 1.45366 ± 0.00046 | 1.44909 ± 0.00046 | – | – | –
[2], x1 = 0.6654 | 1.46937 ± 0.00047 | 1.46448 ± 0.00047 | 1.4596 ± 0.0005 | – | – | –
[2], x1 = 0.8211 | 1.48094 ± 0.00049 | 1.47589 ± 0.00049 | 1.47087 ± 0.00049 | – | – | –
[2], x1 = 0.9285 | 1.48772 ± 0.0005 | 1.48262 ± 0.0005 | 1.47752 ± 0.0005 | – | – | –
[2], x1 = 1 | 1.49174 ± 0.00051 | 1.48654 ± 0.00051 | 1.48137 ± 0.00051 | – | – | –

ClCCCl [1,2-dichloroethane] + C[N+](=O)[O-]
x1 = 1
Settings | refractive index, 298.15 K | refractive index, 308.15 K | refractive index, 318.15 K | speed of sound, 298.15 K [m/s] | speed of sound, 308.15 K [m/s] | speed of sound, 318.15 K [m/s]
[1] | – | – | – | 1194.4 ± 1.2 | 1156.1 ± 1.2 | 1117.8 ± 1.1
[2] | 1.44206 ± 0.00031 | 1.43661 ± 0.00031 | 1.43109 ± 0.00031 | – | – | –

ClCCCCl [1,3-dichloropropane] + C[N+](=O)[O-]
Settings | refractive index, 298.15 K | refractive index, 308.15 K | refractive index, 318.15 K | speed of sound, 298.15 K [m/s] | speed of sound, 308.15 K [m/s] | speed of sound, 318.15 K [m/s]
[1], x1 = 0.0878 | – | – | – | 1303 ± 1.7 | 1264 ± 1.7 | 1225 ± 1.7
[1], x1 = 0.1939 | – | – | – | 1285.9 ± 1.6 | 1247.3 ± 1.6 | 1208.9 ± 1.6
[1], x1 = 0.2938 | – | – | – | 1273.6 ± 1.6 | 1235.4 ± 1.6 | 1197.3 ± 1.6
[1], x1 = 0.3998 | – | – | – | 1263.5 ± 1.5 | 1225.6 ± 1.5 | 1187.8 ± 1.5
[1], x1 = 0.5028 | – | – | – | 1255.9 ± 1.4 | 1218.2 ± 1.4 | 1180.7 ± 1.4
[1], x1 = 0.6154 | – | – | – | 1249.4 ± 1.4 | 1212 ± 1.4 | 1174.8 ± 1.4
[1], x1 = 0.7207 | – | – | – | 1244.7 ± 1.3 | 1207.5 ± 1.3 | 1170.5 ± 1.3
[1], x1 = 0.8326 | – | – | – | 1240.8 ± 1.3 | 1203.8 ± 1.3 | 1167 ± 1.3
[1], x1 = 0.9404 | – | – | – | 1237.9 ± 1.2 | 1201 ± 1.2 | 1164.4 ± 1.2
[1], x1 = 1 | – | – | – | 1236.5 ± 1.2 | 1199.7 ± 1.2 | 1163.2 ± 1.2
[2], x1 = 0.0878 | 1.38808 ± 0.0004 | 1.38325 ± 0.0004 | 1.37861 ± 0.0004 | – | – | –
[2], x1 = 0.1939 | 1.39757 ± 0.00038 | 1.39278 ± 0.00038 | 1.38807 ± 0.00038 | – | – | –
[2], x1 = 0.2938 | 1.40567 ± 0.00037 | 1.40095 ± 0.00037 | 1.39632 ± 0.00037 | – | – | –
[2], x1 = 0.3998 | 1.41335 ± 0.00036 | 1.40869 ± 0.00036 | 1.40422 ± 0.00036 | – | – | –
[2], x1 = 0.5028 | 1.42017 ± 0.00035 | 1.41551 ± 0.00035 | 1.41092 ± 0.00035 | – | – | –
[2], x1 = 0.6154 | 1.42699 ± 0.00034 | 1.42236 ± 0.00034 | 1.41782 ± 0.00034 | – | – | –
[2], x1 = 0.7207 | 1.43278 ± 0.00034 | 1.42826 ± 0.00034 | 1.4234 ± 0.0003 | – | – | –
[2], x1 = 0.8326 | 1.43844 ± 0.00033 | 1.43358 ± 0.00033 | 1.42879 ± 0.00033 | – | – | –
[2], x1 = 0.9404 | 1.44348 ± 0.00032 | 1.43846 ± 0.00032 | 1.43349 ± 0.00032 | – | – | –
[2], x1 = 1 | 1.44617 ± 0.00032 | 1.44123 ± 0.00032 | 1.43614 ± 0.00032 | – | – | –
